# Results: patent US20240424131A1, “TARGETING NANOPARTICLES FOR THERAPY” (University of Pittsburgh - Of the Commonwealth System of …, priority 2021, published 2024)
# System: CT26 cells
# Experiment: Transwell co-culture transcytosis, HUVECs and CT26 cells
# Format: cell-based
# Conditions: NPs applied to HUVECs in upper chamber
smiles,measurement,value
O=C(N/N=C/c1ccc(O)c(O)c1)c1cc2ccccc2cc1O [dynasore],transfection of CT26 cells by Cy5.5-siRNA NPs in presence of endocytosis inhibitor,significantly inhibited
